Patent US20120276047A1, “FUSED TRICYCLIC COMPOUNDS AND DERIVATIVES THEREOF USEFUL FOR THE TREATMENT OF VIRAL DISEASES” (priority 2009, published 2012)

Test system: HCV replicon cells
Assay: Cell-based HCV replicon assay
Details: Hepatitis C virus, 72 h; replicon RNA level by real time PCR (Taqman), cells harvested on day 3; EC50 = concentration to achieve ΔCT=1 over baseline
Method: To measure cell-based anti-HCV activity of selected compounds of the present invention, replicon cells were seeded at 5000 cells/well in 96-well collagen I-coated Nunc plates in the presence of the test compound. Various concentrations of test compound, typically in 10 serial 2-fold dilutions, were added to the assay mixture, with the starting concentration ranging from 250 μM to 1 μM. The final concentration of DMSO was 0.5%, fetal bovine serum was 5%, in the assay media. Cells were harvested on day 3 by the addition of 1× cell lysis buffer (Ambion cat #8721). The replicon RNA level was measured using real time PCR (Taqman assay). The amplicon was located in 5B. The PCR primers were: 5B.2F, ATGGACAGGCGCCCTGA; 5B.2R, […]; the probe sequence was FAM-labeled CACGCCATGCGCTGCGG. GAPDH RNA was used as endogenous control and was amplified in the same reaction as NS5B (multiplex PCR) using primers and VIC-labeled probe recommended by the manufacturer (PE Applied Biosystem). […] Alternatively, to quantitate the absolute amount of replicon RNA, a standard curve was established by including serially diluted T7 transcripts of replicon RNA in the Taqman assay. […]

With `COC(=O)N[C@@H](C(=O)N1CCC[C@H]1c1nc2ccc3cc(-c4ccc5c(ccc6nc([C@@H]7CCCN7C(=O)[C@H](NC(=O)OC)C(C)C)[nH]c65)n4)ccc3c2[nH]1)C(C)C` [Compound 1] the EC50 was under 1 nM.
